# Patent publication US20100004193A1, “COMBINATION THERAPY” (FONDAZIONE PER LA RICERCA BIOMEDICA AVANZATA ONLUS - …, priority 2008, published 2010)
# Tests used:
# [1] = system: T-24, HT-1197, HT-1376, MCF-7, A-549 and AsPC-1 cancer cell lines; experiment: EC50 for Gem-induced cell death or growth inhibition with G418 at fixed concentrations; assay type: cell-based; conditions: G418 at fixed concentrations with no or little effect on their own; Gem 2 to 5 days
# Experimental: Cell culture, cell death assays and growth assays—The T-24 and HT-1376 cell lines were purchased from the German Collection of Microorganisms and Cell Cultures and were cultivated in DMEM, high glucose, containing 10% Fetal Bovine Serum (FBS) or Minimum Essential Medium with 10% FBS and non-essential amino acids, respectively. HT-1197 was a gift from Bioxell (Milano) and was cultured like HT-1376. […] HT-1376 and its clones were incubated for 4 days and HT-1197 for 5 days with Gem including one medium change after 2 days. The percentage of dead cells that took up propidium iodide was determined using flow cytometry. […] Staining with Annexin-V-FITC was performed according to the manufacturer's description (Roche). […] Absorbance was read at 570 nm with reference at 650 nm.
# G418 enhances Gem-induced cell death or growth inhibition in various cancer cell lines—Since enhancing Gem action would benefit therapy, we tested whether supplementing Gem with G418 could augment the effect of Gem also in other cancer cell lines. To this end, we added G418 at fixed concentrations and determined the EC50 value for Gem-induced cell death. […]
# FIG. 6. […] Cell death was measured by propidium iodide dye exclusion except for MCF-7 and AsPC-1 where cell number was measured by MTT-assay. […]
# [2] = concentrations comparable to the concentrations used by the applicant; cited from earlier work
# [3] = system: T-24, HT-1376 and HT-1197 cell lines and clones; experiment: Metabolic labelling of protein synthesis with 35S-methionine/cysteine; assay type: cell-based
# Experimental: Cells were labelled for 1.5 hours in growth medium without methionine and cysteine supplemented with 30 μCi/ml [^35S]-methionine/cysteine. Subsequently, the proteins were precipitated with TCA as described previously (Zhang et al., 2004). The incorporated radioactivity was expressed as counts/μg protein.
# FIG. 3. Protein synthesis in the presence of Gem is higher in the resistant clones. […] Medium was removed and replaced for 1.5 h by medium containing 30 μCi/ml ^35S-methionine/cysteine (pulse). […] The reduction in radioactively labelled proteins due to protein degradation during the chase was significant as indicated. (B) The three parental cell lines and HT-1197 and T-24 stably expressing Bcl-2 were incubated with Gem as in (A) in the presence of 40 μM (T-24, HT-1376) or 80 μM z-VAD-fmk (HT-1197) or vehicle (DMSO). Subsequently, the cells were labelled as before. (C) Two sensitive and two resistant clones of each clone set were incubated and labelled as in (A). […] Results are from two independent experiments in duplicate. Error bars depict S.E.M. **P<0.01.
# FIG. 5. Protein synthesis inhibitors diminish Gem resistance. (A) Two sensitive and two resistant clones of each clone set were incubated with Gem (T-24: 30 nM, 2 days; HT-1376: 80 nM, 4 days; HT-1197: 120 nM, 5 days). […] Cell death was measured by propidium iodide dye exclusion using flow cytometry. (B) The parental cell lines were incubated with Gem (T-24: 30 nM Gem, 1 day; HT-1376: 80 nM, 3 days; HT-1197: 120 nM, 3 days) in the absence or presence of the indicated protein synthesis inhibitors (250 μg/ml G418 for T-24, 80 μg/ml for HT-1376, 70 μg/ml for HT-1197; 500 ng/ml CHX for all cell lines; 10 nM rapamycin for all cell lines). Subsequently, cells were labeled with 30 μCi/ml ^35S-methionine/cysteine. (C) The parental cell lines were incubated with Gem like for the selection of the Gem-resistant clones and additionally G418 was added at 250 μg/ml (T-24), 80 μg/ml G418 (HT-1376) or 70 μg/ml G418 (HT-1197). Afterward, the remaining cells on the culture plate were stained with crystal violet. A representative assay is shown. All other data are from two independent experiments in duplicate. Error bars represent S.E.M. **P-<0.01, ***p<0.001.
# [4] = system: eIF2α, eukaryotic initiation factor 4E binding protein 1, ribosomal protein S6; experiment: Phosphorylation state of translation regulators upon Gem treatment; assay type: cell-based
# Experimental: Quantitative real-time PCR and immunoblotting—We used the same RNA that was isolated for the DNA microarrays and prepared cDNA using Applied Biosystem (ABI) Reverse Transcription Reagents with random hexamer primers. Real-time PCR was performed using the PCR Master Mix (ABI) and ready-made TaqMan expression assays on an ABI Prism 7000. […] For this clone set, we used another “house-keeping gene”, HPRT1, for normalizing the expression values. Expression levels were calculated according to the formula: 1000*2^([…]). Cell lysis for protein extraction was performed on the same day as metabolic labelling. Immunoblotting was done as described previously (Abraham et al., 2005).
# [5] = system: T-24 and HT-1197; experiment: Form of Gem-induced cell death, Bcl-2 overexpression; assay type: cell-based; conditions: inhibited by Bcl-2 overexpression
# Experimental: (§1) Cell culture, cell death assays and growth assays—The T-24 and HT-1376 cell lines were purchased from the German Collection of Microorganisms and Cell Cultures and were cultivated in DMEM, high glucose, containing 10% Fetal Bovine Serum (FBS) or Minimum Essential Medium with 10% FBS and non-essential amino acids, respectively. HT-1197 was a gift from Bioxell (Milano) and was cultured like HT-1376. […] HT-1376 and its clones were incubated for 4 days and HT-1197 for 5 days with Gem including one medium change after 2 days. The percentage of dead cells that took up propidium iodide was determined using flow cytometry. […] Staining with Annexin-V-FITC was performed according to the manufacturer's description (Roche). To assess the cell number by staining with 3-(4,5-Dimethylthiazol-2-yl)-2,5-diphenyltetrazolium bromide (MTT), MTT was added at 500 μg/ml. After 2 hours, precipitate was solubilized by addition of 0.04N HCl/Isopropanol. Absorbance was read at 570 nm with reference at 650 nm.
# In HT-1376, apoptosis could not be inhibited by Bcl-2. However, this might be attributed to the relatively low overexpression of Bcl-2 (Supplementary FIG. 1).
# [6] = system: clones of T-24, HT-1376 and HT-1197 bladder cancer cell lines; experiment: Cell death by propidium iodide dye exclusion (flow cytometry) in Gem-sensitive and Gem-resistant clones; assay type: cell-based; conditions: 2 sensitive and 2 resistant clones per clone set; Gem 30 nM 2 days (T-24), 80 nM 4 days (HT-1376), 120 nM 5 days (HT-1197); G418 250 or 70 μg/ml, cycloheximide 500 ng/ml, rapamycin 10 nM
# Experimental: as §1
# Generation of Gemcitabine-resistant clones and stable cell lines—The T-24 cell line was incubated with 120 nM Gem for 3 days, HT-1376 with 160 nM Gem and HT-1197 with 1.6 μM for 7 days. […] Subsequently, the medium was changed for normal growth medium without Gem and the cells were grown for additional 1 to 3 weeks. […]
# FIG. 5. […] Cell death was measured by propidium iodide dye exclusion using flow cytometry. […]
compound,measurement,setting,value
CN[C@@H]1[C@@H](O)[C@@H](O[C@@H]2[C@@H](O)[C@H](O[C@H]3O[C@H]([C@@H](C)O)[C@@H](O)[C@H](O)[C@H]3N)[C@@H](N)C[C@H]2N)OC[C@]1(C)O [G418],Decrease of the EC50 value for Gem-induced cell death by addition of G418,[1],up to 30 fold
same,Effects of G418 treatment on mice,[2],without detectable effects on mice
"Nc1ccn([C@@H]2O[C@H](CO)[C@@H](O)C2(F)F)c(=O)n1 [Gem, 2′-2′-difluorodeoxycytidine]",Protein synthesis upon Gem treatment of the parental cell lines,"[3]; T-24 30 nM 1 day, HT-1376 80 nM 3 days, HT-1197 120 nM 3 days",protein synthesis was reduced
same,"Protein synthesis upon Gem treatment, resistant versus sensitive clones",[3]; two resistant and two sensitive clones of each clone set,decreased protein synthesis significantly less in the resistant clones compared to the sensitive clones
same,Phosphorylation state upon Gem treatment,[4],neither eIF2α nor eukaryotic initiation factor 4E binding protein 1 nor ribosomal protein S6 changed phosphorylation state
same,Form of cell death induced by Gem,[5],induced an apoptotic form of cell death
C[C@@H]1C[C@@H]([C@H](O)CC2CC(=O)NC(=O)C2)C(=O)[C@@H](C)C1 [cycloheximide],Gem-induced cell death on concomitant treatment with a protein synthesis inhibitor,[6],inhibited Gem-induced cell death
same,Protein synthesis in the presence of Gem plus a protein synthesis inhibitor,"[3]; parental cell lines, Gem 30 nM 1 day (T-24), 80 nM 3 days (HT-1376), 120 nM 3 days (HT-1197), G418 250/80/70 μg/ml, CHX 500 ng/ml, rapamycin 10 nM",increased protein synthesis compared to Gem alone
z-VAD-fmk,Protein synthesis rates with Gem in the presence of the caspase inhibitor,"[3]; 40 μM (T-24, HT-1376) or 80 μM (HT-1197) z-VAD-fmk",did not alter the protein synthesis rates with Gem
